One assay concerns the target T1, MAO-B (Rattus norvegicus, UniProt P19643).
T1 construct: Both Forms of Monoamine Oxidase in the Rat Brain; from tissue
T1 sequence (P19643 1-520): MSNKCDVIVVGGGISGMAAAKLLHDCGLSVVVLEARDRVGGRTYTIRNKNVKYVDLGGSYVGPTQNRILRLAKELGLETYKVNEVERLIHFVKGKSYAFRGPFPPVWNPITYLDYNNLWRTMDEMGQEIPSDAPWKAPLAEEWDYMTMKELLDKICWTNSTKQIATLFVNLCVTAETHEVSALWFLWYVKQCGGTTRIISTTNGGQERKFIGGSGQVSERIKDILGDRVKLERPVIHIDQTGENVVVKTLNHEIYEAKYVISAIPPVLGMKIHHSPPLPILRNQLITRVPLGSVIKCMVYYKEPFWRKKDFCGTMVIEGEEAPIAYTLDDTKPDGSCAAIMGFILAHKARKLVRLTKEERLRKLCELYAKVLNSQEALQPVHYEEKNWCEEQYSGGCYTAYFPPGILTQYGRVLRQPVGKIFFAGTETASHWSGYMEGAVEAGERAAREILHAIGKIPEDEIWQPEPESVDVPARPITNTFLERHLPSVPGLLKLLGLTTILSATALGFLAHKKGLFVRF
Briefly: Monoamine oxidase-B (MAO-B) inhibition assay. The settings on record: for IC50: Table II; for Ratio A/B: ratio of MAO-A IC50 to MAO-B IC50. It is filed as biochemical.

Another assay addresses T2, MAO-A (Rattus norvegicus, UniProt P21396).
T2 construct: Both Forms of Monoamine Oxidase in the Rat Brain; from tissue
T2 sequence (P21396 1-526): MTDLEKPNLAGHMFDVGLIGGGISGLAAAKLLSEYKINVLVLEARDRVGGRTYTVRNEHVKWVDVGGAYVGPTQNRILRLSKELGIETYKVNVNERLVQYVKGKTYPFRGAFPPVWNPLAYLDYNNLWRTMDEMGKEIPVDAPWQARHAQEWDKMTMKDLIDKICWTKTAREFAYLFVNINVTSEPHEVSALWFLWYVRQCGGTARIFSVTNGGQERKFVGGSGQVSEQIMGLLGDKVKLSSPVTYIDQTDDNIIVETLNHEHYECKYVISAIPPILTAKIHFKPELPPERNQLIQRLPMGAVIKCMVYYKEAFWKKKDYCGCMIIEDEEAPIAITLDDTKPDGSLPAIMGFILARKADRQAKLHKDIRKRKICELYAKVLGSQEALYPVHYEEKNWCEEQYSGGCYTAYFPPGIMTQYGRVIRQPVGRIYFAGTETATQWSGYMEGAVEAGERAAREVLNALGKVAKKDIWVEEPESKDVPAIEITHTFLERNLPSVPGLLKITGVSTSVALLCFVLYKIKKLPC
Description: Monoamine oxidase-A (MAO-A) inhibition assay. The settings on record: Table II. It is filed as biochemical.

The next assay can be described thus: AMPT test (ED50). Type of assay: in vivo. The settings on record: Table II; method not described.

In the case of `O=C1NC(=O)C(=Cc2cccc(OCc3ccccc3)c2)S1` [Example 1, 5-[3-(Phenylmethoxy)phenylmethyl-ene]-2,4-thiazolidinedione], at MAO-B, 100 µM corresponded to half-maximal inhibition (IC50) and the “Ratio A/B” value was determined as 1. On MAO-A, the IC50 amounted to 100 µM.

In the case of `N#CCCCN1C(=O)SC(=Cc2ccc(OCc3cccc(Cl)c3)cc2)C1=O` [Example 9], the 50% inhibitory concentration (IC50) amounted to 100 µM on MAO-B and 30 µM on MAO-A. The “Ratio A/B” value on MAO-B was below 1.

On to `O=C1NC(=O)C(=Cc2ccc(OCc3cccc(Cl)c3)cc2)S1` [Example 8, 5-{4-[(3-Chlorophenyl)methoxy]phenylmethylene}-2,4-thiazolidinedione], for which, on MAO-B, the IC50 is 30 µM and the “Ratio A/B” value is above 3. In addition, the IC50 on MAO-A was above 100 µM.

With `O=C1NC(=O)C(=Cc2ccc(OCCc3ccccc3)cc2)S1` [Example 4, 5-[4-(2-Phenylethoxy)phenylmethylene]-2,4-thiazolidinedione], on MAO-B, 0.1 µM corresponded to half-maximal inhibition (IC50) and the “Ratio A/B” value is above 300. This molecule also returned an IC50 against MAO-A of 30 µM.

Consider `N#CCCCCN1C(=O)SC(=Cc2cccc(OCc3ccccc3)c2)C1=O` [Example 3], for which, at MAO-B, the IC50 is 0.7 µM and the “Ratio A/B” value was above 1428. The molecule also displayed a half-inhibitory concentration (IC50) against MAO-A above 1000 µM.

Regarding `N#CCCCN1C(=O)SC(=Cc2cccc(OCc3ccccc3)c2)C1=O` [Example 2, 2,4-Dioxo-5-[3-(phenylmethoxy)-phenylmethylene]-4-thiazolidinebutanenitrile], on MAO-B, the concentration for half-maximal inhibition (IC50) is 0.1 µM and the “Ratio A/B” value is listed as above 50000. The 50% inhibitory concentration (IC50) against MAO-A was above 5000 µM.

Turning to `N#CCN1C(=O)SC(=Cc2ccc(OCCc3ccccc3)cc2)C1=O` [Example 5, 2,4-Dioxo-5-[4-(2-phenylethoxy)phenylmethylene]-3-thiazolidineacetonitrile], at MAO-B, half-maximal inhibition (IC50) was put at 2 µM and the “Ratio A/B” value stood at 15. In addition, the IC50 on MAO-A stood at 30 µM.

On to `O=C1NC(=O)C(Cc2ccc(OCC34CC5CC(CC(C5)C3)C4)cc2)S1` (stereo not shown) [Example 7, 5-[4-(3-Adamantylmethoxy)phenylmethyl]-2,4-thiazolidinedione], for which, at MAO-B, the IC50 came to 0.1 µM and the “Ratio A/B” value was 300. For the same molecule, on MAO-A, the concentration for half-maximal inhibition (IC50) was 30 µM.

In the case of `CCCCCCOc1ccc(CC2SC(=O)NC2=O)cc1` (stereo not shown) [Example 6, 5-[(4-Hexyloxyphenyl)methyl]-2,4-thiazolidinedione], the IC50 against MAO-B turned out to be 0.1 µM; at MAO-A, 10 µM. Also, the “Ratio A/B” value at MAO-B is given as 100. The molecule further displayed a median effective dose (ED50) in the assay “AMPT test (ED50)” of 6.71 mg/kg.

The values are drawn from patent US5326770A, “Monoamine oxidase-B (MAO-B) inhibitory 5-substituted 2,4-thiazolidinediones useful in treating memory disorders of mammals” (priority 1992, dated 1994).
